From patent US9879014B2, “Method for screening substance capable of inhibiting abnormal splicing causative of onset or progress of disease” (KYOTO UNIVERSITY, priority 2013, dated 2018)
Entries after “also recorded” stand apart in the source; their conditions may differ.

Columns and labels:
[1] = test system: IKBKAP gene with the IVS20+6T→C mutation; conditions: disclosed in U.S. Pat. No. 7,737,110; cited from earlier work
[2] = test system: pre-mRNA of the mutant human IKBKAP gene having the IVS20+6T→C mutation; test: two-color fluorescent FD-type splicing reporter construct in HeLa cells (GFP/RFP); type: cell-based; conditions: HeLa cells transfected with FD-type reporter construct
Text: A reporter construct (FD type) as illustrated in FIG. 1B was produced by utilizing exons 19 to 21 of a mutant human IKBKAP gene having the IVS20^+6T→C mutation as illustrated in FIG. 1A. In the reporter construct, a gene for a GST protein, exons 19 to 21 of a mutant human IKBKAP gene, a red fluorescent protein (RFP), and a green fluorescent protein (GFP) were connected in this order downstream of a CAG promoter. When this reporter construct underwent wild-type splicing, the gene for a GST protein and exons 19 to 21 of the mutant human IKBKAP gene were joined to form an mRNA of 3n+1 bases in length, and a stop codon (UAA) of the RFP gene was out-of-frame, so that the GFP gene was translated in the frame to express a green fluorescent protein. On the other hand, when this reporter construct underwent abnormal splicing, the gene for a GST protein and exons 19 to 21 of the mutant human IKBKAP gene were joined to form an mRNA of 3n bases in length, so that the RFP gene and the stop codon (UAA) of the RFP gene were translated in the frame to express a red fluorescent protein. The FD-type reporter construct was used to screen a compound capable of inhibiting abnormal splicing of a pre-mRNA that was transcribed from the construct. Specifically, the FD-type reporter construct was transfected into HeLa cells, and then a test compound was brought into contact with the HeLa cells and cultured. Next, fluorescence observation was performed after a predetermined time, and the fluorescence intensity ratio (GFP/RFP) of GFP (normal splicing products) to RFP (abnormal splicing products) was compared to the control (e.g., a solvent alone or kinetin (reference compound 1)), so that the compound with higher fluorescence intensity was determined. […] The FD-type reporter construct was transfected into HeLa cells, and then the compound 1 was brought into contact with the HeLa cells and cultured (compound concentration: […], and 50.0 μM). Next, fluorescence observation was performed each after 24 hours and 48 hours, and the fluorescence intensity ratio (GFP/RFP) was determined. […]

[3] = test system: endogenous IKBKAP gene with the IVS20+6T→C mutation in cells of FD patients; test: RT-PCR of spliced products of the endogenous IKBKAP gene in cells of FD patients; type: cell-based, human; conditions: cultured 60 hours
Procedure: The cells of FD patients were obtained from Coriell Institute. The endogenous IKBKAP gene in the cells of FD patients had the IVS20^+6T→C mutation. Compound 1 and the kinetin were added at a concentration of 2 μM or 50 μM to a culture medium of the cells of FD patients. The cells were cultured for 60 hours, collected, and then subjected to RT-PCR. As the control, untreated cells and DMSO (solvent) treated cells were used. FIG. 4 illustrates the results.

Compound | inhibition of abnormal splicing of the IKBKAP gene with the IVS20+6T→C mutation [1] | fluorescence intensity ratio (GFP/RFP) of GFP (normal splicing) to RFP (abnormal splicing) ([2]; 0.4, 2.0, 0.10, and 50.0 μM, after 24 hours and 48 hours) | degree of increase of GFP/RFP ratio compared with kinetin ([2]; after 24 hours and 48 hours) | screening outcome: GFP/RFP fluorescence intensity ratio compared to the control (solvent alone or kinetin) ([2]; after a predetermined time) | spliced products (mRNAs) of the endogenous IKBKAP gene by RT-PCR ([3]; 2 μM or 50 μM) | abnormal splicing inhibition activity compared with kinetin ([3]; RT-PCR) | concentration capable of inhibiting abnormal splicing ([3]; RT-PCR)
c1coc(CNc2ncnc3nc[nH]c23)c1 [kinetin] | can inhibit abnormal splicing |  |  |  |  |  | 
Clc1nc(NCc2ccco2)c2nc[nH]c2n1 [compound 1, 2-chloro-N-(2-furanylmethyl)-7H-purin-6-amine] |  | increased in a concentration-dependent manner; also recorded: increases the GFP/RFP ratio in a concentration-dependent manner | significantly higher than that of the kinetin; also recorded: superior to that of kinetin | selected as a candidate compound for inhibiting abnormal splicing | reduces the abnormal splicing products and increases the normal splicing products | about the same as that of the kinetin at a concentration of 50 μM; also recorded: superior to that of kinetin | ≤ 2 µM
